Assays:
[1] = tested on: Caspase 3/7; experiment: Apoptosis assay (Caspase 3/7) in A549 cells; type: cell-based; settings: Homo sapiens, 24 hours, read-out: EC50, Caspase 3/7 activation
Description: Overview. PIM1 is a kinase, and has many downstream targets including Bad (BCL2 associated agonist of cell death), a member of the BCL-2 family. BCL-2 family members are regulators of the programmed cell death pathways. Proapoptotic activity of Bad is regulated through its phosphorylation. Dephosphorylated Bad forms a heterodimer with Bcl-2 and Bcl-xL, inactivating them and thus allowing Bax/Bak-triggered apoptosis. Bad phosphorylation is thus anti-apoptotic, and Bad dephosphorylation is pro-apoptotic. PIM inhibition is expected to result in a decrease of phosphorylated Bad, and an increase in apoptosis.
Procedure. Three thousand five hundred A549 cells (ATCC, CCL-185) were added per well of a 384-well plate in a total volume of twenty-five microliters and cultured in RPMI medium (no phenol red)+plus ten percent fetal calf serum. The next day, DMSO or test compound was added (90 nanoliters of test compound/DMSO per well) at 7 different concentrations starting at 10 micromolar (3.3-fold dilution). After 24 hours at 37° C. with 5% CO2, apoptosis was measured by using the Caspase 3/7 assay system (Promega, G8090). […] The cells were then incubated at room temperature for 30 minutes and luminescence was measured for each sample using a plate reading luminometer (Envision, PerkinElmer).

[2] = target: T1, PIM2 (Homo sapiens, UniProt Q9P1W9); experiment: RBC HotSpot kinase inhibition assay, PIM2; type: biochemical
T1 construct: purchased Invitrogen PR6347B
Experimental: Reagents. Base Reaction Buffer: 20 mM Hepes (pH 7.5), 10 mM MgCl2, 1 mM EGTA, 0.01% Brij35, 0.02 mg/ml BSA, 0.1 mM Na3VO4, 2 mM DTT, 1% DMSO. The following kinases were used in the assay at the indicated concentrations:
The following substrates were used in combination with the indicated kinases in the assay at the indicated concentration:
No cofactors were added to any of the reactions.
• 1. Prepared substrate in freshly prepared Reaction Buffer. • 2. Delivered kinase into the substrate solution and gently mixed. • 3. Delivered test compound in 100% DMSO into the kinase reaction mixture by Acoustic technology (Echo550; nanoliter range), incubated for 20 minutes at room temperature. • 4. Delivered ^33P-ATP into the reaction mixture to initiate the reaction. • 5. Incubated for 2 hours at room temperature. • 6. Detected kinase activity by P81 filter-binding method.
The results of the RBC HotSpot™ kinase assay are set forth in Table 1, wherein “A” indicates an IC50<10 nM, “B” indicates an IC50 wherein 10 nM≤IC50≤100 nM, and “C” indicates an IC50>100 nM.

[3] = tested on: IL-23-induced hyperplasia; experiment: IL-23 induced hyperplasia mouse model (psoriasis study); type: in vivo, C57BL/6J mice; settings: for IL-17A production in ear tissue / IL-22 synthesis in ear tissue: day four; for thickness of the ear epidermal tissue: vs rmIL-23/vehicle; for gross ear thickness: caliper, vs rmIL-23/vehicle control group, BID dosing
Description: The IL-23-induced hyperplasia model involves the injection of IL-23 into the ear of mice, and is dependent on IL-22 for the development of dermal inflammation and acanthosis. This model is commonly used to investigate pathways involved in psoriasis as well as potential therapies. To test the ability of Compounds 2 and 4 to reduce psoriasis in vivo, an IL-23 induced hyperplasia mouse model was utilized, and analyses of end-points, such as IL-17A and IL-22 levels, and histological measure of epidermal thickness of the ear tissue, were performed. Procedure. Female C57BL/6J mice between 9 to 13 weeks old (purchased from Taconic Biosciences) were weighed on the day prior to study start to establish a baseline. All treatment arms contained ten animals. All animals, except the sham/vehicle group received 0.4 μg of recombinant mouse IL-23 (rmIL-23) in a volume of 20 μL intradermally into one ear. Mice in group 1 (sham/vehicle) received 20 μL PBS. A total of 4 injections per ear was performed while the second ear was not injected nor analyzed. All drugs were prepared in 0.5 percent methylcellulose and 2 percent Tween 80. Starting on day zero of the study (0.5 to 4 hours before rmIL-23 injection), two doses of test compound (100 or 150 milligrams per kilogram of Compound 4, or 50 or 75 milligrams per kilogram of Compound 2) were given. All dosing was at the same time (+/−1 hour) each day with no less than 10 hours and no more than 14 hours between doses. On days zero (before rmIL-23 injection), three, and four (approximately 24 hours after the final hyperplasia induction injection), thickness of ears was measured using a caliper. Measurements were performed blind, by a person unaware of group or previous measurements. On day four, approximately 24 hours after the final hyperplasia induction injection, all mice were euthanized, and treated ears collected and weighed. Half of each ear was weighed and frozen for cytokine analysis (IL-17A and IL-22 concentration was measured using the Luminex technology by ELISA). The other half of each ear were fixed in 10 percent buffered formalin following H&E staining for histological analysis.

[4] = 75 milligrams per kilogram twice a day
[5] = 100 milligrams per kilogram twice a day
[6] = 150 milligrams per kilogram twice a day

T1 sequence (Q9P1W9 whole entry): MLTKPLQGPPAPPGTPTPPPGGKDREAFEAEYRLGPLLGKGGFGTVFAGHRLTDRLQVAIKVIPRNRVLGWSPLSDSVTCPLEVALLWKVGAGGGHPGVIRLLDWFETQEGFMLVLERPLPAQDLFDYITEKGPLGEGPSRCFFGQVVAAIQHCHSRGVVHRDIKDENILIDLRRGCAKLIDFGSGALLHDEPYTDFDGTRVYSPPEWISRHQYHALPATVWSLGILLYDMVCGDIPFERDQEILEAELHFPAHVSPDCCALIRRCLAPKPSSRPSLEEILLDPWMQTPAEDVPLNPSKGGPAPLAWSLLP

| Structure (SMILES) | EC50 [1] [nM] | IC50 [2] [nM] | IL-17A production in ear tissue [3, 4] | IL-22 synthesis in ear tissue [3, 4] | thickness of the ear epidermal tissue [3, 4] | gross ear thickness [3] | IL-17A production in ear tissue [3, 5] | IL-22 synthesis in ear tissue [3, 5] | thickness of the ear epidermal tissue [3, 5] | gross ear thickness, comparison between groups [3, 6] | IL-17A production in ear tissue [3, 6] | IL-22 synthesis in ear tissue [3, 6] | thickness of the ear epidermal tissue [3, 6] |
| --- | --- | --- | --- | --- | --- | --- | --- | --- | --- | --- | --- | --- | --- |
| Cc1cc(-c2cnc3ccc(NC45CCC(C(C)(C)O)(CC4)CC5)nn23)n[nH]1 [Compound 2, 2-(4-((3-(5-methyl-1H-pyrazol-3-yl)imidazo[1,2-b]pyridazin-6-yl)amino)bicyclo[2.2.2]octan-1-yl)propan-2-ol] | 1000 to 20000 | > 100 | strongly inhibited | reduced | significantly reduced | significantly reduced |  |  |  |  |  |  |  |
| CC(C)(O)C12CCC(Nc3ccc4ncc(-c5cc(C6CC6)[nH]n5)n4n3)(CC1)CC2 [Compound 4, 2-(4-((3-(5-cyclopropyl-1H-pyrazol-3-yl)imidazo[1,2-b]pyridazin-6-yl)amino)bicyclo[2.2.2]octan-1-yl)propan-2-ol] | 1000 to 20000 | 10 to 100 |  |  |  | significantly reduced | strongly inhibited | reduced | significantly reduced | greater effect | strongly inhibited | reduced | significantly reduced |
